How the values were obtained:
[1] = target: T1, human σ2/TMEM97 receptor (Homo sapiens, UniProt Q5BJF2); assay: Binding assay to human σ2/TMEM97 receptor ([3H]-DTG); settings: transfected HEK-293 membranes, 10 nM [3H]-DTG, 25° C., 120 minutes; read-out: Binding σ-[…] (binding to σ2-receptor expressed as Ki)
T1 construct: expressed in transfected cells; host or cells: HEK-293
Method in brief: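 Membranes from transfected HEK-293 cells incubated with 10 nM [3H]-DTG in 50 mM Tris-HCl pH 8.0, 120 min at 25 °C; non-specific binding defined with 10 μM haloperidol. Bound radioactivity counted after filtration; compounds tested as % inhibition at 1 or 10 μM or at five concentrations for Ki.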

[2] = target: T2, human σ1 receptor (Homo sapiens, UniProt Q99720); assay: Human σ1 receptor radioligand assay ([3H](+)-pentazocine); type: binding; settings: transfected HEK-293 membranes, 5 nM [3H](+)-pentazocine, 37° C., 120 minutes; read-out: Binding σ-[…] (binding to σ1-receptor expressed as Ki)
T2 construct: expressed in transfected cells; host or cells: HEK-293
T2 sequence (Q99720 whole entry): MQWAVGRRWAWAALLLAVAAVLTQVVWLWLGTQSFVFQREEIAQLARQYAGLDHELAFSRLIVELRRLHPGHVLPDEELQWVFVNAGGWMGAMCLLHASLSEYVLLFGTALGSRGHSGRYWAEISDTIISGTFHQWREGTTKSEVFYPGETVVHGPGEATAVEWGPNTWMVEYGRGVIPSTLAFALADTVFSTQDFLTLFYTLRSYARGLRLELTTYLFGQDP
Method in brief: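 Binding used [3H](+)-pentazocine, 120 min at 37° C, with non-specific binding defined by 10 μM haloperidol. Bound radioligand was collected by filtration, washed with ice-cold 10 mM Tris-HCl pH 7.4 and counted by scintillation.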

T1 sequence (Q5BJF2 whole entry): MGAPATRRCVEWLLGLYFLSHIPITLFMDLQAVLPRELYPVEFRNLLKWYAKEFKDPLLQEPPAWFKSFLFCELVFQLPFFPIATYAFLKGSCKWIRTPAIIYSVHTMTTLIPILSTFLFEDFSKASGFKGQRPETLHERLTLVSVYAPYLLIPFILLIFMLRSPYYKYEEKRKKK

Row | SMILES | Ki [1] [nM] | Ki [2] [nM]
1 | CC1(C)CN(C(=O)N2CCC3(CCN(Cc4ccc(F)c(C#N)c4)CC3)CC2)c2cccnc21 [Example 147, 5-((9-(3,3-dimethyl-2,3-dihydro-1H-pyrrolo[3,2-b]pyridine-1-carbonyl)-3,9-diazaspiro[5.5]undecan-3-yl)methyl)-2-fluorobenzonitrile] | < 100 | < 100
2 | Cc1ccc2c(n1)C(C)(C)CN2C(=O)[C@H]1CC[C@H](N(C)CC2CCOCC2)CC1 [Example 185, ((1r,4r)-4-(methyl((tetrahydro-2H-pyran-4-yl)methyl)amino)cyclohexyl)(3,3,5-trimethyl-2,3-dihydro-1H-pyrrolo[3,2-b]pyridin-1-yl)methanone] | < 100 | 100 to 500
3 | Cc1ccc2c(n1)C(C)(C)CN2C(=O)N1CCC2(CCN(Cc3cccnc3)CC2)C1 [Example 98, (8-(pyridin-3-ylmethyl)-2,8-diazaspiro[4.5]decan-2-yl)(3,3,5-trimethyl-2,3-dihydro-1H-pyrrolo[3,2-b]pyridin-1-yl)methanone] | < 100 | > 1000
4 | Cc1ccc2c(n1)C(C)(C)CN2C(=O)N1CCC(N(C)Cc2cccc(S(C)(=O)=O)c2)CC1 [Example 56, (4-(methyl(3-(methylsulfonyl)benzyl)amino)piperidin-1-yl)(3,3,5-trimethyl-2,3-dihydro-1H-pyrrolo[3,2-b]pyridin-1-yl)methanone] | 500 to 1000 | > 1000
5 | Cc1ccc2c(n1)C(C)(C)CN2C(=O)NCC(c1ccccc1F)N(C)C (stereo not shown) [Example 19, N-(2-(dimethylamino)-2-(2-fluorophenyl)ethyl)-3,3,5-trimethyl-2,3-dihydro-1H-pyrrolo[3,2-b]pyridine-1-carboxamide] | > 1000 | 100 to 500
6 | CC1(C)CN(C(=O)N2CCC3(CCN(Cc4cc(F)ccc4F)CC3)CC2)c2cccnc21 [Example 164, (9-(2,5-difluorobenzyl)-3,9-diazaspiro[5.5]undecan-3-yl)(3,3-dimethyl-2,3-dihydro-1H-pyrrolo[3,2-b]pyridin-1-yl)methanone] | < 100 | < 100
7 | CC1(C)CN(C(=O)NC2CCN(Cc3cccc(F)c3)CC2)c2cccnc21 [Example 47, N-(1-(3-fluorobenzyl)piperidin-4-yl)-3,3-dimethyl-2,3-dihydro-1H-pyrrolo[3,2-b]pyridine-1-carboxamide] | > 1000 | < 100
8 | Cc1ccc2c(n1)C(C)(C)CN2C(=O)N1CCC2(CCN(Cc3ccc(F)c(C#N)c3)CC2)C1 [Example 107, 2-fluoro-5-((2-(3,3,5-trimethyl-2,3-dihydro-1H-pyrrolo[3,2-b]pyridine-1-carbonyl)-2,8-diazaspiro[4.5]decan-8-yl)methyl)benzonitrile] | < 100 | > 1000
9 | Cc1ccc2c(n1)C(C)(C)CN2C(=O)N1CCC(N(C)CC2CCOCC2)CC1 [Example 65, (4-(methyl((tetrahydro-2H-pyran-4-yl)methyl)amino)piperidin-1-yl)(3,3,5-trimethyl-2,3-dihydro-1H-pyrrolo[3,2-t]pyridin-1-yl)methanone] | < 100 | 100 to 500
10 | Cc1ccc2c(n1)C(C)(C)CN2C(=O)[C@H]1CC[C@H](N(C)Cc2ccc(F)c(C#N)c2)CC1 [Example 181, 2-fluoro-5-((methyl((1r,4r)-4-(3,3,5-trimethyl-2,3-dihydro-1H-pyrrolo[3,2-b]pyridine-1-carbonyl)cyclohexyl)amino)methyl)benzonitrile] | < 100 | < 100
11 | Cc1ccc2c(n1)C(C)(C)CN2C(=O)NCC(c1ccccc1)N1CCCC1 (stereo not shown) [Example 7, 3,3,5-trimethyl-N-(2-phenyl-2-(pyrrolidin-1-yl)ethyl)-2,3-dihydro-1H-pyrrolo[3,2-b]pyridine-1-carboxamide] | > 1000 | 100 to 500
12 | CN(Cc1ccccc1)[C@H]1CC[C@H](C(=O)N2CC(C)(C)c3ncc(F)cc32)CC1 [Example 187, ((1r,4r)-4-(benzyl(methyl)amino)cyclohexyl)(6-fluoro-3,3-dimethyl-2,3-dihydro-1H-pyrrolo[3,2-b]pyridin-1-yl)methanone] | < 100 | < 100
13 | CC1(C)CN(C(=O)NC2CCN(Cc3ccccc3)CC2)c2cccnc21 [Example 32, N-(1-benzylpiperidin-4-yl)-3,3-dimethyl-2,3-dihydro-1H-pyrrolo[3,2-b]pyridine-1-carboxamide] | > 1000 | < 100
14 | Cc1ccc2c(n1)C(C)(C)CN2C(=O)N1CCC2(CCN(CC3CCOCC3)CC2)C1 [Example 105, (8-((tetrahydro-2H-pyran-4-yl)methyl)-2,8-diazaspiro[4.5]decan-2-yl)(3,3,5-trimethyl-2,3-dihydro-1H-pyrrolo[3,2-t]pyridin-1-yl)methanone] | < 100 | 500 to 1000
15 | Cc1ccc2c(n1)C(C)(C)CN2C(=O)N1CC2(CN(Cc3ccccc3)C2)C1 [Example 81, (6-benzyl-2,6-diazaspiro[3.3]heptan-2-yl)(3,3,5-trimethyl-2,3-dihydro-1H-pyrrolo[3,2-b]pyridin-1-yl)methanone] | 500 to 1000 | < 100
16 | Cc1ccc2c(n1)C(C)(C)CN2C(=O)N1CCC2(CCN(Cc3ccccc3)C2)C1 (stereo not shown) [Example 37, (7-benzyl-2,7-diazaspiro[4.4]nonan-2-yl)(3,3,5-trimethyl-2,3-dihydro-1H-pyrrolo[3,2-b]pyridin-1-yl)methanone] | < 100 | 100 to 500
17 | Cc1ccc2c(n1)C(C)(C)CN2C(=O)N1CCCCC(NCCC(C)C)C1 (stereo not shown) [Example 120, (3-(Isopentylamino)azepan-1-yl)(3,3,5-trimethyl-2,3-dihydro-1H-pyrrolo[3,2-t]pyridin-1-yl)methanone] | < 100 | 500 to 1000
18 | Cc1ccc2c(n1)C(C)(C)CN2C(=O)N[C@H]1CCN(Cc2ccccc2)C1 [Example 21, (S)—N-(1-benzylpyrrolidin-3-yl)-3,3,5-trimethyl-2,3-dihydro-1H-pyrrolo[3,2-b]pyridine-1-carboxamide] | > 1000 | 100 to 500
19 | Cc1ccc2c(n1)C(C)(C)CN2C(=O)N1CCC(N(C)CC(C)C)CC1 [Example 119, (4-(isobutyl(methyl)amino)piperidin-1-yl)(3,3,5-trimethyl-2,3-dihydro-1H-pyrrolo[3,2-b]pyridin-1-yl)methanone] | 100 to 500 | 100 to 500
20 | Cc1ccc2c(n1)C(C)(C)CN2C(=O)N1CCC2(CCN(CCC(C)C)CC2)C1 [Example 100, (8-isopentyl-2,8-diazaspiro[4.5]decan-2-yl)(3,3,5-trimethyl-2,3-dihydro-1H-pyrrolo[3,2-b]pyridin-1-yl)methanone] | < 100 | 500 to 1000
21 | Cc1ccc2c(n1)C(C)(C)CN2C(=O)[C@H]1C[C@H](NCc2ccccc2)C1 [Example 134, ((1r,3r)-3-(benzylamino)cyclobutyl)(3,3,5-trimethyl-2,3-dihydro-1H-pyrrolo[3,2-b]pyridin-1-yl)methanone] | > 1000 | 100 to 500
22 | Cc1ccc2c(n1)C(C)(C)CN2C(=O)N1CCC2(CCN(Cc3ccccc3F)CC2)CC1 [Example 160, (9-(2-fluorobenzyl)-3,9-diazaspiro[5.5]undecan-3-yl)(3,3,5-trimethyl-2,3-dihydro-1H-pyrrolo[3,2-b]pyridin-1-yl)methanone] | < 100 | < 100
23 | CN(Cc1ccccc1)[C@H]1CC[C@H](C(=O)N2CC(C)(C)c3ncccc32)CC1 [Example 138, ((1r,4r)-4-(benzyl(methyl)amino)cyclohexyl)(3,3-dimethyl-2,3-dihydro-1H-pyrrolo[3,2-b]pyridin-1-yl)methanone] | < 100 | < 100
24 | Cc1ccc2c(n1)C(C)(C)CN2C(=O)[C@H]1CC[C@H](N(C)Cc2cc(F)cc(F)c2)CC1 [Example 168, ((1r,4r)-4-((3,5-difluorobenzyl)(methyl)amino)cyclohexyl)(3,3,5-trimethyl-2,3-dihydro-1H-pyrrolo[3,2-b]pyridin-1-yl)methanone] | < 100 | < 100
25 | Cc1ccc2c(n1)CCN2C(=O)NC[C@@H](c1ccccc1)N(C)C [Example 6, (R)—N-(2-(dimethylamino)-2-phenylethyl)-5-methyl-2,3-dihydro-1H-pyrrolo[3,2-t]pyridine-1-carboxamide] | > 1000 | 500 to 1000
26 | CN(Cc1cc(F)cc(C#N)c1)C1CCN(C(=O)N2CC(C)(C)c3ncccc32)CC1 [Example 76, 3-(((1-(3,3-dimethyl-2,3-dihydro-1H-pyrrolo[3,2-b]pyridine-1-carbonyl)piperidin-4-yl)(methyl)amino)methyl)-5-fluorobenzonitrile] | 500 to 1000 | > 1000
27 | Cc1ccc2c(n1)C(C)(C)CN2C(=O)N1CCC(N(C)Cc2ccc(N(C)C)cc2)CC1 [Example 68, (4-((4-(dimethylamino)benzyl)(methyl)amino)piperidin-1-yl)(3,3,5-trimethyl-2,3-dihydro-1H-pyrrolo[3,2-b]pyridin-1-yl)methanone] | < 100 | 100 to 500
28 | Cc1ccc2c(n1)C(C)(C)CN2C(=O)N1CCC2(CCN(Cc3cccc(C#N)c3)CC2)C1 [Example 92, 3-((2-(3,3,5-trimethyl-2,3-dihydro-1H-pyrrolo[3,2-b]pyridine-1-carbonyl)-2,8-diazaspiro[4.5]decan-8-yl)methyl)benzonitrile] | < 100 | > 1000
29 | CC1(C)CN(C(=O)NC2CCN(Cc3ccc(F)cc3)CC2)c2cccnc21 [Example 48, N-(1-(4-fluorobenzyl)piperidin-4-yl)-3,3-dimethyl-2,3-dihydro-1H-pyrrolo[3,2-b]pyridine-1-carboxamide] | > 1000 | < 100
